Among the data in patent US20230365554A1, “SUBSTITUTED PYRROLO-PYRIDINONE DERIVATIVES AND THERAPEUTIC USES THEREOF” (The Broad Institute, Inc., priority 2020, published 2023) are IC50 values, retold here.

Chain of human CSNK1D (P48730 whole entry): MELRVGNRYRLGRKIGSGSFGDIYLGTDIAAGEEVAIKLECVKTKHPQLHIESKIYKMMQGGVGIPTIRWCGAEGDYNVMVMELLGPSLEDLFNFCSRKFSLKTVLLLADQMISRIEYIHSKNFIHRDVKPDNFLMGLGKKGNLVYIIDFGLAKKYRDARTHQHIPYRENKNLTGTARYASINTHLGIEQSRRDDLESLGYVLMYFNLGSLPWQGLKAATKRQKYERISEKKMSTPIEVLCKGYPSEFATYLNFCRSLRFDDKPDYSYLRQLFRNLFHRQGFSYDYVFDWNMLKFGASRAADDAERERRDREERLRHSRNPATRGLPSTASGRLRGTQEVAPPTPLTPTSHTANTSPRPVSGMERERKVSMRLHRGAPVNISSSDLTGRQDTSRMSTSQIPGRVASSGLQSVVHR

The target of the experiment is human CSNK1D (Homo sapiens (Human), UniProt P48730). The experiment can be described thus: CSNK1D assay (ADP-Glo, 1 μM ATP). Type of experiment: biochemical. The conditions noted are these: median, Table 2, read-out: CSNK1D IC50 [mol/l] (median). The procedure:
CSNK1D-inhibitory activity of compounds of the present invention in presence of 1 μM adenosine-tri-phosphate (ATP) was quantified employing the CSNK1D assay as described in the following paragraphs. In essence, the enzyme activity is measured by quantification of the adenosine-di-phosphate (ADP), which is generated as a co-product of the enzyme reaction, via the “ADP-Glo™ Kinase Assay” kit from the company Promega. This detection system works as follows: In a first step the ATP not consumed in the kinase reaction is quantitatively converted to cAMP employing an adenylate cyclase (“ADP-Glo-reagent”), then the adenylate cyclase is stopped and the ADP generated in the kinase reaction converted to ATP which generates in a luciferase-based reaction a glow-luminescence signal (“Kinase Detection Reagent”).
Recombinant fusion protein of N-terminal Glutathion-S-Transferase (GST) and full-length human CSNK1D, expressed by baculovirus infected insect cells and purified via Glutathion affinity chromatography, was purchased from Life Technologies (product no. PV3665) and used as enzyme. As substrate for the kinase reaction the biotinylated peptide Btn-Ahx-SGSEGDSESGEEEG (C-terminus in amide form) was used which can be purchased e.g. from the company Biosyntan (Berlin-Buch, Germany).
For the assay 50 nl of a 100 fold concentrated solution of the test compound in DMSO was pipetted into a white 1536-well microtiter plate (Greiner Bio-One, Frickenhausen, Germany), 2 μL of a solution of CSNK1D in aqueous assay buffer [50 mM HEPES pH 7.5, 10% (v/v) glycerol, 10 mM MgCl2, 50 mM NaCl, 1 mM dithiothreitol, 0.01% (w/v) bovine serum albumin, 0.01% (v/v) Triton X-100] were added and the mixture was incubated for 15 min at 22° C. to allow pre-binding of the test compounds to the enzyme before the start of the kinase reaction. Then the kinase reaction was started by the addition of 3 μL of a solution of ATP (1.67 μM=>final conc. in the 5 μL assay volume is 1 μM) and peptide substrate (50 μM=>final conc. in the 5 μL assay volume is 30 μM) in assay buffer and the resulting mixture was incubated for a reaction time of 30 min at 22° C. The concentration of CSNK1D was adjusted depending of the activity of the enzyme lot and was chosen appropriate to have the assay in the linear range, a typical concentration is about 0.5 ng/μL. The reaction was stopped by the addition of 2.5 μL of “ADP-Glo-reagent” (1:1.5 fold diluted with water) and the resulting mixture was incubated at 22° C. for 1 h to convert the ATP not consumed in the kinase reaction completely […]. Subsequently 2.5 μL of the “kinase detection reagent” (1.2 fold more concentrated than recommended by the producer) were added, the resulting mixture was incubated at 22° C. for 1 h and then the luminescence measured with a suitable measurement instrument (e.g. Viewlux™ from Perkin-Elmer). The amount of emitted light was taken as a measure for the amount of ADP generated and thereby for the activity of the CSNK1D.
The data were normalised (enzyme reaction without inhibitor=0% inhibition, all other assay components but no enzyme=100% inhibition).
In general terms: ADP-Glo turns the ADP formed in a reaction into a luminescent signal.
For the compound `Cc1cn(C)c(=O)c2c(Nc3ccccc3)c(-c3ccnc(NC(=O)C(C)c4ccc(F)cc4)c3)[nH]c12` (racemic) [Example 39, N-[4-(3-anilino-5,7-dimethyl-4-oxo-4,5-dihydro-1H-pyrrolo[3,2-c]pyridin-2-yl)pyridin-2-yl]-2-(4-fluorophenyl)propanamide], the IC50 is 56 nM.
The figure for `CCC1CNC(=O)c2c1[nH]c(-c1ccnc(NC(=O)Cc3ccc(F)cc3)c1)c2Nc1ccccc1` (single isomer, unassigned) [Example 3, N-{4-[3-anilino-7-ethyl-4-oxo-4,5,6,7-tetrahydro-1H-pyrrolo[3,2-c]pyridin-2-yl]pyridin-2-yl}-2-(4-fluorophenyl)acetamide] is 10 nM.
As to `CC1CN(C)C(=O)c2c1[nH]c(-c1ccnc(NC(=O)Cc3ccc(F)cc3)c1)c2Nc1ccccc1` (single isomer, unassigned; (-)) [Example 7, (−)-N-{4-[3-anilino-5,7-dimethyl-4-oxo-4,5,6,7-tetrahydro-1H-pyrrolo[3,2-c]pyridin-2-yl]pyridin-2-yl}-2-(4-fluorophenyl)acetamide], the IC50 amounted to 11 nM.
For the compound `CN1CC(CC(F)(F)F)c2[nH]c(-c3ccnc(NC(=O)C(CC(F)F)c4ccc(F)cc4)c3)c(Nc3cscn3)c2C1=O` (single isomer, unassigned) [Example 53, (2R or S)-4,4-difluoro-2-(4-fluorophenyl)-N-{4-[(7R or S)-5-methyl-4-oxo-3-[(1,3-thiazol-4-yl)amino]-7-(2,2,2-trifluoroethyl)-4,5,6,7-tetrahydro-1H-pyrrolo[3,2-c]pyridin-2-yl]pyridin-2-yl}butanamide], the IC50 came to 35 nM.
In the case of `CCC1CNC(=O)c2c1[nH]c(-c1ccnc(NC(=O)Cc3ccc(F)cc3)c1)c2Nc1ccccc1` (single isomer, unassigned) [Example 2, N-{4-[3-anilino-7-ethyl-4-oxo-4,5,6,7-tetrahydro-1H-pyrrolo[3,2-c]pyridin-2-yl]pyridin-2-yl}-2-(4-fluorophenyl)acetamide], the IC50 stood at 5.2 nM.
Next, `Cn1ccc2[nH]c(-c3ccnc(NC(=O)C(CC(F)F)c4ccc(F)cc4)c3)c(Nc3ccccc3)c2c1=O` (racemic) [Example 28, N-[4-(3-anilino-5-methyl-4-oxo-4,5-dihydro-1H-pyrrolo[3,2-c]pyridin-2-yl)pyridin-2-yl]-4,4-difluoro-2-(4-fluorophenyl)butanamide]: 8.1 nM; `C[C@H](C(=O)Nc1cc(-c2[nH]c3ccn(C)c(=O)c3c2Nc2ccccc2)ccn1)c1ccc(F)cc1` (single isomer, unassigned) [Example 26]: 22 nM.
Next, `Cn1cc(CC(F)(F)F)c2[nH]c(-c3ccnc(NC(=O)Cc4ccc(F)cc4)c3)c(Nc3ccccc3)c2c1=O` [Example 34, N-{4-[3-anilino-5-methyl-4-oxo-7-(2,2,2-trifluoroethyl)-4,5-dihydro-1H-pyrrolo[3,2-c]pyridin-2-yl]pyridin-2-yl}-2-(4-fluorophenyl)acetamide]: 9.1 nM; `O=C1N[C@@H]2CCC[C@@H]2c2[nH]c(-c3ccnc(NC(=O)C(CC(F)F)c4ccc(F)cc4)c3)c(Nc3ccccc3)c21` (single isomer, unassigned; (-)) [Example 23, (−)-(2R or S)—N-{4-[cis-3-anilino-4-oxo-1,4,5,5a,6,7,8,8a-octahydrocyclopenta[b]pyrrolo[2,3-d]pyridin-2-yl]pyridin-2-yl}-4,4-difluoro-2-(4-fluorophenyl)butanamide]: 38 nM; `O=C1N[C@@H]2CCC[C@@H]2c2[nH]c(-c3ccnc(NC(=O)C(CC(F)F)c4ccc(F)cc4)c3)c(Nc3ccccc3)c21` (single isomer, unassigned; (-)) [Example 24, (−)-(2R or S)—N-{4-[cis-3-anilino-4-oxo-1,4,5,5a,6,7,8,8a-octahydrocyclopenta[b]pyrrolo[2,3-d]pyridin-2-yl]pyridin-2-yl}-4,4-difluoro-2-(4-fluorophenyl)butanamide]: 24 nM.
The figure for `Cn1cc(CC2CC2)c2[nH]c(-c3ccnc(NC(=O)Cc4ccc(F)cc4)c3)c(Nc3ccccc3)c2c1=O` [Example 32, N-{4-[3-anilino-7-(cyclopropylmethyl)-5-methyl-4-oxo-4,5-dihydro-1H-pyrrolo[3,2-c]pyridin-2-yl]pyridin-2-yl}-2-(4-fluorophenyl)acetamide] is 36 nM.
With `CN1CC(CC(F)(F)F)c2[nH]c(-c3ccnc(NC(=O)C(CC(F)F)c4ccc(F)cc4)c3)c(Nc3ccccc3)c2C1=O` (centres unmarked) [Example 17, N-{4-[3-anilino-5-methyl-4-oxo-7-(2,2,2-trifluoroethyl)-4,5,6,7-tetrahydro-1H-pyrrolo[3,2-c]pyridin-2-yl]pyridin-2-yl}-4,4-difluoro-2-(4-fluorophenyl)butanamide], the IC50 was found to be 17 nM.
Turning to `CN1CC(CC2CC2)c2[nH]c(-c3ccnc(NC(=O)Cc4ccc(F)cc4)c3)c(Nc3ccccc3)c2C1=O` (racemic) [Example 18, N-{4-[3-anilino-7-(cyclopropylmethyl)-5-methyl-4-oxo-4,5,6,7-tetrahydro-1H-pyrrolo[3,2-c]pyridin-2-yl]pyridin-2-yl}-2-(4-fluorophenyl)acetamide], the IC50 is 12 nM.
The figure for `CN1CC(CC(F)(F)F)c2[nH]c(-c3ccnc(NC(=O)C(CC(F)F)c4ccc(F)cc4)c3)c(Nc3cscn3)c2C1=O` (single isomer, unassigned) [Example 54, (2R or S)-4,4-difluoro-2-(4-fluorophenyl)-N-{4-[(7R or S)-5-methyl-4-oxo-3-[(1,3-thiazol-4-yl)amino]-7-(2,2,2-trifluoroethyl)-4,5,6,7-tetrahydro-1H-pyrrolo[3,2-c]pyridin-2-yl]pyridin-2-yl}butanamide] is 4 nM; for `CN1CC(CC(F)(F)F)c2[nH]c(-c3ccnc(NC(=O)Cc4ccc(F)cc4)c3)c(Nc3ccccc3)c2C1=O` (single isomer, unassigned) [Example 15, N-{4-[3-anilino-5-methyl-4-oxo-7-(2,2,2-trifluoroethyl)-4,5,6,7-tetrahydro-1H-pyrrolo[3,2-c]pyridin-2-yl]pyridin-2-yl}-2-(4-fluorophenyl)acetamide] it is 20 nM; for `CN1CC(CC(F)F)c2[nH]c(-c3ccnc(NC(=O)Cc4ccc(F)cc4)c3)c(Nc3ccccc3)c2C1=O` (racemic) [Example 42, N-{4-[3-anilino-7-(2,2-difluoroethyl)-5-methyl-4-oxo-4,5,6,7-tetrahydro-1H-pyrrolo[3,2-c]pyridin-2-yl]pyridin-2-yl}-2-(4-fluorophenyl)acetamide] it is 4.1 nM.
As to `CN1CC(CC2CC2)c2[nH]c(-c3ccnc(NC(=O)Cc4ccc(F)cc4)c3)c(Nc3ccccc3)c2C1=O` (single isomer, unassigned) [Example 20, N-{4-[3-anilino-7-(cyclopropylmethyl)-5-methyl-4-oxo-4,5,6,7-tetrahydro-1H-pyrrolo[3,2-c]pyridin-2-yl]pyridin-2-yl}-2-(4-fluorophenyl)acetamide], the IC50 is 29 nM.
Next, `CN1CC(CC(F)(F)F)c2[nH]c(-c3ccnc(NC(=O)Cc4ccc(F)cc4)c3)c(Nc3ccccc3)c2C1=O` (single isomer, unassigned) [Example 16, N-{4-[3-anilino-5-methyl-4-oxo-7-(2,2,2-trifluoroethyl)-4,5,6,7-tetrahydro-1H-pyrrolo[3,2-c]pyridin-2-yl]pyridin-2-yl}-2-(4-fluorophenyl)acetamide]: 7.1 nM; `O=C1N[C@@H]2CCC[C@@H]2c2[nH]c(-c3ccnc(NC(=O)C(CC(F)F)c4ccc(F)cc4)c3)c(Nc3ccccc3)c21` (mixture of isomers) [Example 21, (2RS)—N-{4-[cis-3-anilino-4-oxo-1,4,5,5a,6,7,8,8a-octahydrocyclopenta[b]pyrrolo[2,3-d]pyridin-2-yl]pyridin-2-yl}-4,4-difluoro-2-(4-fluorophenyl)butanamide]: 18 nM.
The figure for `CCC1CNC(=O)c2c1[nH]c(-c1ccnc(NC(=O)C(CC(F)F)c3ccc(F)cc3)c1)c2Nc1ccccc1` (centres unmarked) [Example 4, N-{4-[3-anilino-7-ethyl-4-oxo-4,5,6,7-tetrahydro-1H-pyrrolo[3,2-c]pyridin-2-yl]pyridin-2-yl}-4,4-difluoro-2-(4-fluorophenyl)butanamide] is 16 nM.
